Holding throughout (conditions): Sprague-Dawley, rat, iv, 1 mg/kg
A short description of data set [1]: in vivo.
Description: Clearance in Sprague-Dawley rat at 1 mg/kg, iv
The nature of data set [2]: in vivo. This is another data set of the same source.
Description: Half life in Sprague-Dawley rat at 1 mg/kg, iv
Data set [3] can be described thus: in vivo. The source holds these as a separate data set.

Data on 1 compound can be found in ChEMBL document CHEMBL1156132, “2-Aminopyrazolo[1,5-a]pyrimidines as potent and selective inhibitors of JAK2” (Bioorg Med Chem Lett, 2009).

As usually defined, the clearance is the rate of elimination divided by the concentration. A higher clearance goes with efficient removal. One may read the half-life as the time needed for the level to fall by half in the phase considered. The low end stands for rapid decline, the high end for slow decline. As a reminder, the Vd is the apparent volume that relates the amount in the body to the concentration in plasma or blood. High values mean wide distribution into tissue, low ones little distribution into tissue.

In turn, `C[C@@H](Nc1cc(-c2c(N)nn3cccnc23)ncn1)c1ccc(F)cc1` showed a clearance in data set [1] of 104 mL/min/kg. In data set [2], this compound gave a half-life of 54 min. This compound came in with a Vd in data set [3] of 5.1 L/kg.
